Patent US4691046A, “Butanedioic acid mono [(2-dimethylamino] ethyl ester)succinate” (Institut Organicheskoi Khimii Ordena Lenina I Ordena …, priority 1986, dated 1987)

Key:
Isocitratedehydrogenase = assay: Activity of isocitratedehydrogenase in myocardium upon low-temperature treatment; assay type: in vivo, mice; conditions: 2.5 hours at -14° C.; 80 mg/kg (invention) or 64 mg/kg (ester); control 49.5 ± 1.2
Method: (§2) The preparations were administered one hour before the standard low-temperature treatment (-14° C.) in doses of 80 mg/kg of the compound according to the present invention and 64 mg/kg of the prior art compound-butanedioic acid mono[(2-dimethylamino)-ethyl ester].

NADH2 --dehydrogenase = assay: Activity of NADH2-dehydrogenase in myocardium upon low-temperature treatment; assay type: in vivo, mice; conditions: 2.5 hours at -14° C.; 80 mg/kg (invention) or 64 mg/kg (ester); control 69.8 ± 1.5
Method: as §2

[1] = Survival of mice on acute cooling; assay type: in vivo
Method: The activity of the compound according to the present invention was studied in experiments on animals. The effectivemess of the compound according to the present invention was studied for resistance against an acute cold effect in comparison with conventional preparations such as butanedioic acid mono[(2-dimethylamino)ethyl ester] and sodium succinate.
The experiments were carried out on male mice (tetrahybdrids) with a body mass of 18-20 g which were placed into a cold chamber at a temperature of -15t to -17° C. in separate plastic cages slightly limiting their activity. […] The preparations were administered intraperiotoneally 1 hour before the cold effect the control animals were administered with a physiological solution.

[2] = Maximum duration of mice lifespan upon testing cold treatment (Le Blanc adaptation procedure); assay type: in vivo
Method: (§1) To elucidate the effect of the compound according to the present invention on the adaptation phenomenon, experiments on male mice with a body mass of 18-20 g were carried out in conformity with the Le Blanc procedure according to which the mice were placed into a cold chamber (at -17° C.) for 10 minutes ever hour over the period of 9-10 hours. After one day the maximum lifespan of the mice at -17° C. was assessed along with the content of glucose in blood and of glycogen in organs upon a predetermined cold treatment (2.5 hours a -14° C.). The compound according to the present invention and butanedioic acid mono[(2-dimethylamino)-ethyl ester] (in doses of 80 and 64 mg/kg respectively) were introduced immediately after a series of short-time cold effects. In a number of experiments the compound according to the present invention was administered 1 hour prior to the testing (2.5 h) cold effect.

[3] = test system: NAD-Ph--H2 --dehydrogenase; assay: Activity of NAD-Ph-H2-dehydrogenase in myocardium upon low-temperature treatment; assay type: in vivo, mice; conditions: 2.5 hours at -14° C.; 80 mg/kg (invention) or 64 mg/kg (ester); control 72.1 ± 1.4
Method: as §2

[4] = Stresso-protective activity, motion stress in slowly rotating drum for 48 hours; assay type: in vivo, rats; conditions: 48 h motion stress
Method: In evaluation of the stresso-protective activity of the compound according to the present invention as a model use was made of a procedure of depriving rats of sleep, meals and water in a slowly rotating drum (at the speed of 0.2 km/h).
The experiments were carried out on 42 nondescript male rats. In parallel experiments the antistress activity of butanedioic acid mono[(2-dimethylamino)ethyl ester] was studied; as the reference prepartion use was made of the prior art tranquilizer--diazepam which was used in the experiments for this very indication.
4 groups of animals were tested in parallel. Groups I and II were placed for 48 hours into a slowly rotating drum, groups III and IV were under normal conditions and were deprived only of meals and water. The compound according to the present invention and butanedioic acid mono[(2-dimethylamino)ethyl ester] were administered intraperitoneally in the dose of 10 mg/kg four times (2 times a day) in the volume of 2.5 ml/kg under the conditions of motion stress (Group I of the animals) and under normal conditions (Group III of animals). The control animals--Group II (active control) and Group IV (passive control) were given a physiological solution. The efficiency of the compound according to the present invention, of butanedioic acid mono[(2-dimethylamino)ethyl ester] and of diazepam was estimated on the basis of a set of characteristics showing the functional activity of the central nervous system, physical fitness and development of basic symptoms of the stress-syndrome.
The residence of control rats in a slowly-rotating drum over 48 hours results in a noticeable deterioration of all the studied characteristics, especially those of higher nervous activity (learning) and development of stress-syndrome. The state of control animals was characterized by lowering of the overall behavioural activity as determined by the "open-field" test (37±15%) with reference to the passive control level, by a reduction in the speed of development of a conventional avoiding response in an aqueous labyrinth (58±15%), by an increase in the number of mistakes during the teaching time (175±25%), lowering of the ultimate physical endurance as determined by the swimming-with-load test (the load is equal to 10% by mass of the body (70±17%), adrenal hypertrophy (146±16%), thymus atrophy (49±9%) and formation of ulcers on the stomach mucous membrane (5.25±1.0%).

[5] = Blood glucose and organ glycogen upon predetermined (2.5 h) cold treatment (adaptation experiment); assay type: in vivo, mice; conditions: 2.5 h at -14° C.; for Glycogen, heart: control 1.7 ± 0.2; for Glycogen, liver: control 6.7 ± 0.4; for Blood glucose: control 37 ± 6
Method: as §1

Succinatedehydrogenase = assay: Activity of succinatedehydrogenase in myocardium upon low-temperature treatment; assay type: in vivo, mice; conditions: 2.5 hours at -14° C.; 80 mg/kg (invention) or 64 mg/kg (ester); control 72.3 ± 1.6
Method: as §2

Pyruvatedehydrogenase = assay: Activity of pyruvatedehydrogenase in myocardium upon low-temperature treatment; assay type: in vivo, mice; conditions: 2.5 hours at -14° C.; 80 mg/kg (invention) or 64 mg/kg (ester); control 56.6 ± 1.1
Method: as §2

Glutamatedehydrogenase = assay: Activity of glutamatedehydrogenase in myocardium upon low-temperature treatment; assay type: in vivo, mice; conditions: 2.5 hours at -14° C.; 80 mg/kg (invention) or 64 mg/kg (ester); control 68.8 ± 1.5
Method: as §2

[6] = Biochemical substrates in mice upon preset (2.5 hours) low-temperature treatment; conditions: 2.5 hours at -14° C.
Method: as §2

[7] = test system: Glucose-6-phosphatedehydrogenase; assay: Activity of glucose-6-phosphatedehydrogenase in myocardium upon low-temperature treatment; assay type: in vivo, mice; conditions: 2.5 hours at -14° C.; 80 mg/kg (invention) or 64 mg/kg (ester); control 57.3 ± 1.3
Method: as §2

[8] = adaptation + preparation 1 hour before the testing effect
[9] = adaptation + preparation immediately after adaptation, 80 mg/kg (invention) or 64 mg/kg (ester)

In the case of CN(C)CCOC(=O)CCC(=O)O [Compound of this invention, butanedioic acid mono[(2-dimethylamino)ethyl ester]succinate], the “Activity of isocitratedehydrogenase in myocardium” value (Isocitratedehydrogenase) is reported as 60.4 ± 1.6 relative units, the “Activity of NADH2-dehydrogenase in myocardium” value (NADH2 --dehydrogenase) is reported as 73.4 ± 2.0 relative units and the “Survival, %, 1 hour” value ([1]; 1 hour of cold at -15 to -17° C., i.p. 1 hour before, 80 mg/kg (invention), 64 mg/kg (ester), 17 mg/kg (sodium succinate)) is reported as 100%. For the same compound, the “Survival, %, 2 hours” value ([1]; 2 hours of cold at -15 to -17° C., i.p. 1 hour before, 80 mg/kg (invention), 64 mg/kg (ester), 17 mg/kg (sodium succinate)) was 100%, the “Survival, %, 3 hours” value ([1]; 3 hours of cold at -15 to -17° C., i.p. 1 hour before, 80 mg/kg (invention), 64 mg/kg (ester), 17 mg/kg (sodium succinate)) was 100% and the “Survival, %, 4 hours” value ([1]; 4 hours of cold at -15 to -17° C., i.p. 1 hour before, 80 mg/kg (invention), 64 mg/kg (ester), 17 mg/kg (sodium succinate)) was 90%. The “Survival, %, 5 hours” value ([1]; 5 hours of cold at -15 to -17° C., i.p. 1 hour before, 80 mg/kg (invention), 64 mg/kg (ester), 17 mg/kg (sodium succinate)) was 70%, the “Survival, %, 6 hours” value ([1]; 6 hours of cold at -15 to -17° C., i.p. 1 hour before, 80 mg/kg (invention), 64 mg/kg (ester), 17 mg/kg (sodium succinate)) was 70% and the “protective effect on survival at high dose” value ([1]; doses above 300 mg/kg) was “less pronounced”. The “Lifespan in hours (at -17° C.), preparation without adaptation” value ([2]; no adaptation, intact animals 3.4 ± 0.4) was 7.8 ± 0.3 h, the “Lifespan in hours (at -17° C.), preliminary adaptation + preparation” value ([2]; with preliminary adaptation, 80 mg/kg (invention) or 64 mg/kg (ester), adaptation alone 6.0 ± 0.3, listed as compound of the present invention) was 10.3 ± 0.6 h and the “Activity of NAD-Ph-H2-dehydrogenase in myocardium” value [3] was 85.9 ± 1.7 relative units. The “formation of ulcers on the stomach mucous membrane” value [4] was 4.8±1.5%, the “general behavioural activity compared with diazepam” value ([4]; in words) was “substantially higher general behavioural activity” and the “Weight coefficient of thymus” value ([4]; 10 mg/kg i.p. four times (invention, ester), control 0.95 ± 0.18, listed as compound of the present invention, 10 mg/kg) was 1.25 g/kg of the initial body mass. For the same compound, the “Weight coefficient of adrenal glands” value ([4]; 10 mg/kg i.p. four times (invention, ester), control 1.246 ± 0.028, listed as compound of the present invention, 10 mg/kg) was 1.83 g/kg of the initial body mass, the “Number of attempts till reaching the learning criterion (water labyrinth)” value ([4]; 10 mg/kg i.p. four times (invention, ester), control 4.75 ± 0.5, listed as compound of the present invention, 10 mg/kg) was 2.75 and the “Number of ulcers on the stomach mucous membrane” value ([4]; 10 mg/kg i.p. four times (invention, ester), control 5.25 ± 1.0, listed as compound of the present invention, 10 mg/kg) was 2.5. The Duration of swimming ([4]; 10 mg/kg i.p. four times (invention, ester), control 244 ± 26, listed as compound of the present invention, 10 mg/kg) was 499 s, the total behavioural activity ([4]; open-field test, stressed control 37±15% of passive control) was 85±10% and the “higher nervous activity (protection)” value ([4]; stressed control 58±15% (avoiding response, aqueous labyrinth)) was 100±9%. The physical endurance ([4]; swimming-with-load test, stressed control 70±17%) was 143±28%, the “Glycogen, heart” value [5, 8] was 2.6 ± 0.4 mg/g and the “Glycogen, liver” value [5, 8] was 11.7 ± 2.4 mg/g. The Blood glucose [5, 8] was 78 ± 6 mg. %, the “Glycogen, heart” value [5, 9] was 2.9 ± 0.2 mg/g and the “Glycogen, liver” value [5, 9] was 18.2 ± 2.1 mg/g. For the same compound, the Blood glucose [5, 9] was 88 ± 2 mg. %, the “Activity of succinatedehydrogenase in myocardium” value (Succinatedehydrogenase) was 90.2 ± 1.8 relative units and the “Activity of pyruvatedehydrogenase in myocardium” value (Pyruvatedehydrogenase) was 68.9 ± 1.3 relative units. The “Activity of glutamatedehydrogenase in myocardium” value (Glutamatedehydrogenase) was 78.3 ± 1.7 relative units, the Liver glycogen ([6]; 1 hour after 80 mg/kg (invention) or 64 mg/kg (ester), control 8.1 ± 0.6, intact 35.2 ± 4.5) was 9.8 ± 1.2 mg/kg and the Blood glucose ([6]; 1 hour after 80 mg/kg (invention) or 64 mg/kg (ester), control 42 ± 4, intact 79 ± 3) was 80 ± 4 mg. %. The Creatine phosphate ([6]; myocardium, 1 hour after 80 mg/kg (invention) or 64 mg/kg (ester), control 1.2 ± 0.08, intact 3.7 ± 0.3) was 2.3 ± 0.1 μm/g, the Adenosine monophosphate ([6]; myocardium, 1 hour after 80 mg/kg, control 0.45 ± 0.01, intact 0.51 ± 0.03) was 0.32 ± 0.02 μm/g and the Adenosine diphosphate ([6]; myocardium, 1 hour after 80 mg/kg, control 0.49 ± 0.02, intact 0.78 ± 0.03) was 0.86 ± 0.04 μm/g. The Adenosine triphosphoric acid ([6]; myocardium, 1 hour after 80 mg/kg, control 1.5 ± 0.1, intact 2.2 ± 0.3) was 1.9 ± 0.2 μm/g and the “Activity of glucose-6-phosphatedehydrogenase in myocardium” value [7] was 67.4 ± 1.5 relative units.
